Ki data for 6 compounds are collected here from BindingDB's records for doi:10.1016/j.bmc.2012.11.021 (University of Bonn, 2012).

The structures appear in SMILES notation. Some results are limits rather than exact numbers.

The target of one test is Adenosine receptor A2a (Rattus norvegicus, UniProt P30543). Kind of test: Displacement of [3H]CGS21680 from adenosine A2A receptor in rat brain striatal membrane after 60 mins by liquid scintillation counting analysis. A general note: Loss of bound radioactivity is the signal in a displacement assay; it reports binding, not function.
In a further test the target is T1, Adenosine receptor A2b (Homo sapiens, UniProt P29275).
T1 sequence (P29275 whole entry): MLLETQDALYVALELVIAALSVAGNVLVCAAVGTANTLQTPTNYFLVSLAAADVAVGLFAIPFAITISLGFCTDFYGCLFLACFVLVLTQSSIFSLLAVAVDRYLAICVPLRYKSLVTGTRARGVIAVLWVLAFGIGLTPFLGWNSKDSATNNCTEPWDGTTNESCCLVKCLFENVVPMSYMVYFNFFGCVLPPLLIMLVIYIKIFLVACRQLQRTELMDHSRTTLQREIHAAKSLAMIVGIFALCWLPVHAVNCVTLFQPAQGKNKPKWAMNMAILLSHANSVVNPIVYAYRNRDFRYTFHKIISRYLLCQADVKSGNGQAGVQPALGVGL
The test is described as follows: Displacement of [3H]PSB-603 from human recombinant adenosine A2B receptor expressed in CHO cells after 75 mins by liquid scintillation counting analysis.

Chain of Adenosine receptor A2a (P30543 whole entry): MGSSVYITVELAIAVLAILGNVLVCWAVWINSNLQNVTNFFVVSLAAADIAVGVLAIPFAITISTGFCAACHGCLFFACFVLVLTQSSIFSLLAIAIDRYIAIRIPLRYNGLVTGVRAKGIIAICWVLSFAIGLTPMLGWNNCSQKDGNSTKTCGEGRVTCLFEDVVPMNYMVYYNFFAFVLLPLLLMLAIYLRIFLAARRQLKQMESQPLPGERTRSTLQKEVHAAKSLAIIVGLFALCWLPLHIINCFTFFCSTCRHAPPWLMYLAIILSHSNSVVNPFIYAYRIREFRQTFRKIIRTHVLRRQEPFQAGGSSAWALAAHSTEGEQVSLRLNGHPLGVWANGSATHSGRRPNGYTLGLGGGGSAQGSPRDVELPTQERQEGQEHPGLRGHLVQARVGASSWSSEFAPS

As usually defined, the Ki is the equilibrium dissociation constant of an inhibitor or competing ligand from its target. On to `Nc1nc(NNCC(=O)[C@@H](O)[C@@H](O)CO)nc2c1ncn2[C@@H]1O[C@H](CO)[C@@H](O)[C@H]1O`, for which the Ki was above 1 µM on Adenosine receptor A2a and above 10 µM on Adenosine receptor A2b.

As for `CN(NCC(=O)[C@@H](O)[C@@H](O)[C@H](O)CO)c1nc(N)c2ncn([C@@H]3O[C@H](CO)[C@@H](O)[C@H]3O)c2n1`, the Ki on Adenosine receptor A2a was above 1 µM; on Adenosine receptor A2b, above 10 µM.

On to `CN(NCC(=O)[C@@H](O)[C@@H](O)CO)c1nc(N)c2ncn([C@@H]3O[C@H](CO)[C@@H](O)[C@H]3O)c2n1`, for which the values for the Ki at Adenosine receptor A2a and on Adenosine receptor A2b were above 1 µM and above 10 µM, respectively.

`Nc1nc(NNC(CO)C(=O)[C@@H](O)[C@@H](O)CO)nc2c1ncn2[C@@H]1O[C@H](CO)[C@@H](O)[C@H]1O` (some centres not stated): the Ki is above 1 µM on Adenosine receptor A2a and above 10 µM on Adenosine receptor A2b.

For the compound `CN(NCC(=O)[C@H](O)[C@@H](O)[C@@H](O)CO)c1nc(N)c2ncn([C@@H]3O[C@H](CO)[C@@H](O)[C@H]3O)c2n1`, the figures for the Ki at Adenosine receptor A2a and on Adenosine receptor A2b were above 1 µM and above 10 µM, respectively.

Take `CN(NC(CO)C(=O)[C@@H](O)[C@@H](O)CO)c1nc(N)c2ncn([C@@H]3O[C@H](CO)[C@@H](O)[C@H]3O)c2n1` (some centres not stated): the Ki on Adenosine receptor A2a was above 1 µM; on Adenosine receptor A2b, above 10 µM.
